# Laboratory results published in ChEMBL document CHEMBL5108009, “Positron Emission Tomography (PET) Imaging Tracers for Serotonin Receptors” (J Med Chem, 2022).
# Key:
# [1] = target: T1, 5-hydroxytryptamine receptor 2B (Homo sapiens, UniProt P41595); assay: Binding affinity to 5-HT2B (unknown origin) assessed as inhibition constant by liquid scintillation counter analysis
# [2] = target: T2, 5-hydroxytryptamine receptor 2A (Rattus norvegicus, UniProt P14842); assay: Binding affinity to rat 5-HT2A assessed as inhibition constant by liquid scintillation counter analysis
# T2 sequence (P14842 whole entry): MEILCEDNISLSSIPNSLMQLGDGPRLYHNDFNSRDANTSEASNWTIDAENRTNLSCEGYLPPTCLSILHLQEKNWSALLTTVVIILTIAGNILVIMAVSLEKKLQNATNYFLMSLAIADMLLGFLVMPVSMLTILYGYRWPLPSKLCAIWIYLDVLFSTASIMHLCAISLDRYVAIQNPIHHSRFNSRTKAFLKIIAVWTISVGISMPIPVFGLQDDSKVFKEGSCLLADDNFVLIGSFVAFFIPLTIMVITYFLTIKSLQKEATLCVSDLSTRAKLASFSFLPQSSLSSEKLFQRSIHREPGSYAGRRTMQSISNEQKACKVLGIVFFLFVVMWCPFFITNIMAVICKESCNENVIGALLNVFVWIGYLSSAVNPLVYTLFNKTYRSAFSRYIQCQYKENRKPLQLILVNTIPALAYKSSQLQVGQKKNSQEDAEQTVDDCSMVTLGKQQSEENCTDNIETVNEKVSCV
# [3] = target: T3, 5-hydroxytryptamine receptor 2C (Homo sapiens, UniProt P28335); assay: Binding affinity to 5-HT2C (unknown origin) assessed as inhibition constant by liquid scintillation counter analysis
# T3 sequence (P28335 whole entry): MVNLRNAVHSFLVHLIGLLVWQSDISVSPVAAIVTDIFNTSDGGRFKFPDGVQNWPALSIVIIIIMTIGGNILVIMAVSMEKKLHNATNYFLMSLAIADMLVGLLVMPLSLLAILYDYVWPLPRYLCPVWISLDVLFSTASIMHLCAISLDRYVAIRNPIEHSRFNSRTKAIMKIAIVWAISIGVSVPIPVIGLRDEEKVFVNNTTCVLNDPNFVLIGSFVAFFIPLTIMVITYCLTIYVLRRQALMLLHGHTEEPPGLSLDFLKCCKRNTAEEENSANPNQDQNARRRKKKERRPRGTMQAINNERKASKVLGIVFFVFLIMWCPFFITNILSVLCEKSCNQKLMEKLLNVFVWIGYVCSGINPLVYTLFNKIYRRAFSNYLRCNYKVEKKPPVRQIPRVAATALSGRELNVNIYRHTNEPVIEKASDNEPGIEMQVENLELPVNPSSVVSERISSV
# [4] = Ratio of drug uptake in Wistar rat cortex to cerebellum at 10 MBq measured at 30 mins; format: ADME, tissue-based; conditions: in vivo, 0.5 h
# [5] = Drug uptake in Wistar rat frontal cortex assessed as non-displaceable binding potential at 10 MBq measured at 5 to 60 mins; format: ADME, tissue-based; conditions: in vivo, time 5-60 min
# [6] = target: T2, 5-hydroxytryptamine receptor 2A; assay: Binding affinity to rat frontal cortex 5-HT2A assessed as dissociation constant; format: tissue-based
# [7] = target: T2, 5-hydroxytryptamine receptor 2A; assay: Binding affinity to rat frontal cortex 5-HT2A assessed as inhibition constant; format: tissue-based
# [8] = target: T4, 5-hydroxytryptamine receptor 1A (Homo sapiens, UniProt P08908)
# T4 sequence (P08908 whole entry): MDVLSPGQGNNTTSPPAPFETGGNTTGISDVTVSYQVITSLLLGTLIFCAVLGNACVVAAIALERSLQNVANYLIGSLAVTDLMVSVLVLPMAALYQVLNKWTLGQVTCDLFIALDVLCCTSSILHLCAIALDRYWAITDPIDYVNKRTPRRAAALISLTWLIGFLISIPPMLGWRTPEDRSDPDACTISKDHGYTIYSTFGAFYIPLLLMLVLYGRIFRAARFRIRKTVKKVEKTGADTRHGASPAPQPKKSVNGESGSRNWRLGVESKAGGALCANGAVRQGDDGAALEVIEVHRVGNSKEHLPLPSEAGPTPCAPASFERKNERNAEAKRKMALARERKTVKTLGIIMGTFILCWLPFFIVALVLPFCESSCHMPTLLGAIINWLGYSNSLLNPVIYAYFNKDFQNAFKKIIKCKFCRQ
# [9] = target: T1, 5-hydroxytryptamine receptor 2B
# [10] = target: T5, 5-hydroxytryptamine receptor 7 (Homo sapiens, UniProt P34969)
# T5 sequence (P34969 whole entry): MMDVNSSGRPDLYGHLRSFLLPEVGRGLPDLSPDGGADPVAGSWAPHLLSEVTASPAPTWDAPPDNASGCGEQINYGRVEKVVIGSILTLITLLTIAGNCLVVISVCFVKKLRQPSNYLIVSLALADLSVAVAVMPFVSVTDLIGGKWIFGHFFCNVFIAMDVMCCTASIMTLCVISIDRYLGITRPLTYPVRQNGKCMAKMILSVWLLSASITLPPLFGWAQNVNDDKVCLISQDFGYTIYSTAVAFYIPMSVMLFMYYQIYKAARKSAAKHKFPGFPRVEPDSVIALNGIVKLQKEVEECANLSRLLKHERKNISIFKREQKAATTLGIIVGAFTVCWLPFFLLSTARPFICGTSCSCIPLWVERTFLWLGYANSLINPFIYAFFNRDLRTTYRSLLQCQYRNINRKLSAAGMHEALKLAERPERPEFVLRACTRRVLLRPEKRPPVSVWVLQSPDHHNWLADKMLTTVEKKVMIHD
# [11] = target: T6, 5-hydroxytryptamine receptor 1F (Homo sapiens, UniProt P30939); assay: Binding affinity to human 5-HT1F assessed as inhibition constant
# T6 sequence (P30939 whole entry): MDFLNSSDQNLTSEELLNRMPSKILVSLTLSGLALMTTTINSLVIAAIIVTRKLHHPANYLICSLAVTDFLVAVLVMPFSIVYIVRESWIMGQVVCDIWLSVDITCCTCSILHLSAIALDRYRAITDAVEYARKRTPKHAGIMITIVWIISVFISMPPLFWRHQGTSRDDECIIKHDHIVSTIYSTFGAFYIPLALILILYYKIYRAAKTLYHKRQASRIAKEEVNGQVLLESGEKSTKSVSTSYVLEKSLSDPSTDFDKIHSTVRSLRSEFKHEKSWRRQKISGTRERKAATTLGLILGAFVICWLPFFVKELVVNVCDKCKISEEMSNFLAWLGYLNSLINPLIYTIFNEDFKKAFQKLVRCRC
# [12] = target: T7, 5-hydroxytryptamine receptor 1D (Homo sapiens, UniProt P28221); assay: Binding affinity to 5-HT1D (unknown origin) assessed as inhibition constant
# T7 sequence (P28221 whole entry): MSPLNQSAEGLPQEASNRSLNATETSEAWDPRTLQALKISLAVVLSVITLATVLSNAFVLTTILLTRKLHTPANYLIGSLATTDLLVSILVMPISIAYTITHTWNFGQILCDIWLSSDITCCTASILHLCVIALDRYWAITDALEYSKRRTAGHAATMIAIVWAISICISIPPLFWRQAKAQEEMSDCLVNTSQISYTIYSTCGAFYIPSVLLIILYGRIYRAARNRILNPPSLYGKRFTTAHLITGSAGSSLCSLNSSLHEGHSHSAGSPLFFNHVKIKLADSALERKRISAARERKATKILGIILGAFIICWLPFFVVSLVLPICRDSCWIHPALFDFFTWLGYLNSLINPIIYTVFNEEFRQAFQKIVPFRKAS
# [13] = target: T3, 5-hydroxytryptamine receptor 2C
# [14] = target: 5-hydroxytryptamine receptor 5A (Homo sapiens, UniProt P47898); assay: Binding affinity to 5-HT5A receptor (unknown origin) assessed as inhibition constant
# 5-hydroxytryptamine receptor 5A, sequence (P47898 whole entry): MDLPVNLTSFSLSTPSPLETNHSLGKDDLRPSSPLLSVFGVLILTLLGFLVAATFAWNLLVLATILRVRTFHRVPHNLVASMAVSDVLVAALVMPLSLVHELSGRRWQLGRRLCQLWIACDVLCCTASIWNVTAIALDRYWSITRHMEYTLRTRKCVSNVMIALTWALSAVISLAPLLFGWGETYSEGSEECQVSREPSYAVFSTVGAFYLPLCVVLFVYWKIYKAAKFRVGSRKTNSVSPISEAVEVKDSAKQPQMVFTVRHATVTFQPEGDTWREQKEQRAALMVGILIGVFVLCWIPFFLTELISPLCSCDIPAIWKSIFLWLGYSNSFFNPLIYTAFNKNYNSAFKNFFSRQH
# [15] = Drug uptake in rat brain frontal cortex relative to control; format: ADME, tissue-based; conditions: in vivo
# [16] = target: T7, 5-hydroxytryptamine receptor 1D; assay: Binding affinity to human 5-HT1D expressed in CHO cells assessed as inhibition constant incubated for 1 hr by Cheng-Prusoff equation analysis; format: cell-based
# [17] = target: T8, Alpha-1A adrenergic receptor (Rattus norvegicus, UniProt P43140); assay: Displacement of [3H]prazosin from rat whole brain alpha1 adrenergic receptor; format: tissue-based
# T8 sequence (P43140 whole entry): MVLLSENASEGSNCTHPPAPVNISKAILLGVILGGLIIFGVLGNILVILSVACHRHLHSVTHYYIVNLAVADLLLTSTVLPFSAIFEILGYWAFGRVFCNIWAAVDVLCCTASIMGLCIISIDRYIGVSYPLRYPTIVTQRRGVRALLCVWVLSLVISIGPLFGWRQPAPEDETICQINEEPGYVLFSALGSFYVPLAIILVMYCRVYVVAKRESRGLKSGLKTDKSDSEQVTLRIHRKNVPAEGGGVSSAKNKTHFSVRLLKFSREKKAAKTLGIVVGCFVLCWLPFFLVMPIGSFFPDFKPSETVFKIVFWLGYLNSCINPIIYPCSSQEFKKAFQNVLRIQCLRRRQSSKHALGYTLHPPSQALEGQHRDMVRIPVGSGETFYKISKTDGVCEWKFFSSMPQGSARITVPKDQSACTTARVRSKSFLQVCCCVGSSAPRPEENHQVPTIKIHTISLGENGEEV
# [18] = target: T2, 5-hydroxytryptamine receptor 2A; assay: Displacement of [3H]-Ketanserin from rat cortical membrane 5-HT2A receptor; format: cell membranes, Cortex
# [19] = target: D(2) dopamine receptor (Rattus norvegicus, UniProt P61169); assay: Displacement of [3H]-spiperone from rat striatal membrane D2 receptor; format: cell membranes, Striatum
# D(2) dopamine receptor, sequence (P61169 whole entry): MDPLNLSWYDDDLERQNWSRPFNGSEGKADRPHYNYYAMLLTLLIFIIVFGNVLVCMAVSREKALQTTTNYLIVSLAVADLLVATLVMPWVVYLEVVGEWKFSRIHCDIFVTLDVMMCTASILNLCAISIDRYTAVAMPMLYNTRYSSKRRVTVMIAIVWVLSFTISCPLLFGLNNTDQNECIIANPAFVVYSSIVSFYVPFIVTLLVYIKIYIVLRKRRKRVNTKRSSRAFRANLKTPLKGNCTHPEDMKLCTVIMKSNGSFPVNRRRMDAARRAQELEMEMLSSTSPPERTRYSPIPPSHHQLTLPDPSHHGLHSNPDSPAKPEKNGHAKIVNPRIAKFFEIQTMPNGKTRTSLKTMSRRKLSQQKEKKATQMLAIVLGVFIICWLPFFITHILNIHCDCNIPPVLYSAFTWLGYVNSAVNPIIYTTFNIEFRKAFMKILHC
# [20] = target: Serotonin 3 (5-HT3) receptor; assay: Binding affinity to 5-HT3 receptor (unknown origin) assessed as inhibition constant; format: protein-complex assay, Homo sapiens
# [21] = Ratio of drug uptake in rat cortex to cerebellum at steady state; format: ADME, tissue-based; conditions: in vivo
# [22] = Drug uptake in human frontal cortex assessed as non-displaceable binding potential; format: ADME, tissue-based
# [23] = target: T5, 5-hydroxytryptamine receptor 7; assay: Binding affinity to human 5-HT7 receptor transfected by pcDNA3.1(+) vector in HEK293 cells assessed as inhibition constant by Cheng-Prusoff equation analysis; format: cell-based
# [24] = target: 5-hydroxytryptamine receptor 1B (Homo sapiens, UniProt P28222)
# 5-hydroxytryptamine receptor 1B, sequence (P28222 whole entry): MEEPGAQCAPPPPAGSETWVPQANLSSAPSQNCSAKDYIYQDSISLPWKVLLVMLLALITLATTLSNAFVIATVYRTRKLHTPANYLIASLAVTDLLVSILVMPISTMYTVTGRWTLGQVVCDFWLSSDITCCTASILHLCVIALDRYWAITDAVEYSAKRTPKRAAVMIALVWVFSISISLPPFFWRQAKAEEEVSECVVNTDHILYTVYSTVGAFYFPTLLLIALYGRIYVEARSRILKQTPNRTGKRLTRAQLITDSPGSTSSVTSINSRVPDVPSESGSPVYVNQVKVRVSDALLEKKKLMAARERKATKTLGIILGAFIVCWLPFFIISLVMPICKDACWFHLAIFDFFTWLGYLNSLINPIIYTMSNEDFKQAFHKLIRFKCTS
# [25] = target: T6, 5-hydroxytryptamine receptor 1F; assay: Binding affinity to human 5-HT1F assessed as inhibition constant incubated for 10 mins by radioligand binding assay
# [26] = target: Sigma intracellular receptor 2 (Homo sapiens, UniProt Q5BJF2); assay: Binding affinity to sigma 2 receptor (unknown origin) assessed as inhibition constant
# Sigma intracellular receptor 2, sequence (Q5BJF2 whole entry): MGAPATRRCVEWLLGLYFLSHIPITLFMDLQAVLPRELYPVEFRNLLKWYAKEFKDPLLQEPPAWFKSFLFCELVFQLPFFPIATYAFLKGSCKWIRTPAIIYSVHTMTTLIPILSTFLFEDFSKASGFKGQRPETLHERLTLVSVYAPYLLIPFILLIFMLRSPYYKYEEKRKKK
# [27] = target: Sigma non-opioid intracellular receptor 1 (Homo sapiens, UniProt Q99720); assay: Binding affinity to sigma 1 receptor (unknown origin) assessed as inhibition constant
# [28] = target: T5, 5-hydroxytryptamine receptor 7; assay: Binding affinity to 5-HT7 receptor (unknown origin) assessed as inhibition constant
# [29] = target: T2, 5-hydroxytryptamine receptor 2A; assay: Antagonist activity at rat 5-HT2A receptor; format: functional
# [30] = target: T9, 5-hydroxytryptamine receptor 2A (Homo sapiens, UniProt P28223); assay: Binding affinity to human 5-HT2A assessed as inhibition constant
# T9 sequence (P28223 whole entry): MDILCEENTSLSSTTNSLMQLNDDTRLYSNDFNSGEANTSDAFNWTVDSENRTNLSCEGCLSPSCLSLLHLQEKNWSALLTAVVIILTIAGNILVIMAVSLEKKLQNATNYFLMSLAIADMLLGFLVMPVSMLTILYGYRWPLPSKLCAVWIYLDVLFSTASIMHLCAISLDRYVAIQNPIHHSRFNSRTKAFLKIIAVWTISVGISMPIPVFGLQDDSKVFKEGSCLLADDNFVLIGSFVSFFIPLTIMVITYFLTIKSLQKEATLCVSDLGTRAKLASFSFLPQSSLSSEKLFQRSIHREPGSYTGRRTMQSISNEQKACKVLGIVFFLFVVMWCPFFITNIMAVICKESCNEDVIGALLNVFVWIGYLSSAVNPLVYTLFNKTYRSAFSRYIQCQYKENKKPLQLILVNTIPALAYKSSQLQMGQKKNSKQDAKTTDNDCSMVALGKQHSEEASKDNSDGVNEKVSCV
# [31] = target: T3, 5-hydroxytryptamine receptor 2C; assay: Binding affinity to human 5-HT2C assessed as inhibition constant
# [32] = Drug uptake in pig brain cortex assessed as non-displaceable binding potential; format: ADME, tissue-based, Sus scrofa; conditions: in vivo
# [33] = Drug uptake in pig brain cortex measured at 10 to 20 mins postinjection; format: ADME, organism-based, Sus scrofa; conditions: in vivo, time 10-20 min
# [34] = Drug uptake in pig striatum relative to control; format: ADME, tissue-based, Sus scrofa; conditions: in vivo
# [35] = target: T9, 5-hydroxytryptamine receptor 2A; assay: Binding affinity to human recombinant 5-HT2A assessed as inhibition constant
# [36] = Drug uptake in human striatum relative to control; format: ADME, tissue-based
# [37] = target: T10, 5-hydroxytryptamine receptor 6 (Homo sapiens, UniProt P50406); assay: Binding affinity to human recombinant 5-HT6 receptor assessed as inhibition constant
# T10 sequence (P50406 whole entry): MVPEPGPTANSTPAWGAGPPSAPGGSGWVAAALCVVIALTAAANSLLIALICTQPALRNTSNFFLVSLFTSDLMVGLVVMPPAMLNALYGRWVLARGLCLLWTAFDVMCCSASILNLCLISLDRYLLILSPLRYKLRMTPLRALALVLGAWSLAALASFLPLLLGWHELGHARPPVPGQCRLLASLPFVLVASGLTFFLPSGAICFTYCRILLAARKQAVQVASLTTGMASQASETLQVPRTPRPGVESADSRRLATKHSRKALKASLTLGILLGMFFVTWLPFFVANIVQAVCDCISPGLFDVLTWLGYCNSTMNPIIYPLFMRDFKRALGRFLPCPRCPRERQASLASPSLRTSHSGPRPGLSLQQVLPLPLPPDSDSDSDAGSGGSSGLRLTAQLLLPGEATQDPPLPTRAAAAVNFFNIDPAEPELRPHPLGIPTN
# [38] = Drug uptake in Papio anubis striatum relative to control; format: ADME, tissue-based
# [39] = target: T1, 5-hydroxytryptamine receptor 2B; assay: Displacement of [3H]-mesulergine from 5-HT2B (unknown origin) assessed as inhibition constant by radioligand competitive binding assay
# [40] = In vivo binding affinity of Papio anubis baboon 5-HT2C assessed as inhibition constant measured after 1 to 21 mins postinjection; format: functional, organism-based
# [41] = target: T3, 5-hydroxytryptamine receptor 2C; assay: Displacement of [3H]-mesulergine from 5-HT2C (unknown origin) assessed as inhibition constant by radioligand competitive binding assay
# [42] = target: T4, 5-hydroxytryptamine receptor 1A; assay: Displacement of [3H]-mesulergine from 5-HT1A (unknown origin) assessed as inhibition constant by radioligand competitive binding assay
# [43] = Drug uptake in cat striatum at 2.5 mCi, iv measured upto 90 mins by PET imaging; format: ADME, organism-based, Felis catus; conditions: in vivo, 1.5 h
# [44] = Drug uptake in Cynomolgus monkey striatum at 4 mCi, iv measured upto 90 mins by PET imaging; format: ADME, organism-based, Macaca fascicularis; conditions: in vivo, 1.5 h
# [45] = target: T10, 5-hydroxytryptamine receptor 6; assay: Binding affinity to 5-HT6 receptor (unknown origin) assessed as inhibition constant
# [46] = target: 5-hydroxytryptamine receptor 7 (Rattus norvegicus, UniProt P32305); assay: Binding affinity to rat brain 5-HT7 receptor assessed as inhibition constant incubated for 60 mins; format: tissue-based
# 5-hydroxytryptamine receptor 7 (Rattus norvegicus, UniProt P32305), sequence (P32305 whole entry): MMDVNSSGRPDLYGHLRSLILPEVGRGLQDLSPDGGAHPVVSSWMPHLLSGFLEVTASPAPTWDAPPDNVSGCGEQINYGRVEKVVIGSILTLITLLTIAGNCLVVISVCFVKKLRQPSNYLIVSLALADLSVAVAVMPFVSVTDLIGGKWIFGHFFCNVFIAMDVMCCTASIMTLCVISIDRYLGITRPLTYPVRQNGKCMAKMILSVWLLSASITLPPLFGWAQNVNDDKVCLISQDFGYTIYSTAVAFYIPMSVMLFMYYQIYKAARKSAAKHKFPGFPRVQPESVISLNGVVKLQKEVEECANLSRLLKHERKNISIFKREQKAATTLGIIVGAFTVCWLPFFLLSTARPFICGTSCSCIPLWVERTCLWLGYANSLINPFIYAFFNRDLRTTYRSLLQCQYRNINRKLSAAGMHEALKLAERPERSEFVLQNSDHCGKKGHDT
# [47] = Ratio of drug uptake in baboon cerebral cortex to cerebellum measured at 60 mins postinjection; format: ADME, organism-based, Papio; conditions: in vivo, 1 h
# [48] = Ratio of drug uptake in human striatum to cerebellum; format: ADME, tissue-based
# [49] = Ratio of drug uptake in baboon striatum to cerebellum measured at 60 mins postinjection; format: ADME, organism-based, Papio; conditions: in vivo, 1 h
# [50] = Ratio of drug uptake in human frontal cortex to cerebellum; format: ADME, tissue-based, Brain frontal cortex/cerebellum
# [51] = target: T9, 5-hydroxytryptamine receptor 2A; assay: Inverse agonist activity at human 5-HT2A receptor incubated for 3 hrs by radioligand binding assay; format: functional
# [52] = target: T9, 5-hydroxytryptamine receptor 2A; assay: Antagonist activity at human 5-HT2A receptor incubated for 3 hrs by radioligand binding assay; format: functional
# [53] = Drug uptake in human brain; format: ADME, tissue-based
# [54] = target: 5-hydroxytryptamine receptor 4 (Homo sapiens, UniProt Q13639); assay: Binding affinity to 5-HT4 receptor (unknown origin) assessed as inhibition constant
# T1 sequence (P41595 whole entry): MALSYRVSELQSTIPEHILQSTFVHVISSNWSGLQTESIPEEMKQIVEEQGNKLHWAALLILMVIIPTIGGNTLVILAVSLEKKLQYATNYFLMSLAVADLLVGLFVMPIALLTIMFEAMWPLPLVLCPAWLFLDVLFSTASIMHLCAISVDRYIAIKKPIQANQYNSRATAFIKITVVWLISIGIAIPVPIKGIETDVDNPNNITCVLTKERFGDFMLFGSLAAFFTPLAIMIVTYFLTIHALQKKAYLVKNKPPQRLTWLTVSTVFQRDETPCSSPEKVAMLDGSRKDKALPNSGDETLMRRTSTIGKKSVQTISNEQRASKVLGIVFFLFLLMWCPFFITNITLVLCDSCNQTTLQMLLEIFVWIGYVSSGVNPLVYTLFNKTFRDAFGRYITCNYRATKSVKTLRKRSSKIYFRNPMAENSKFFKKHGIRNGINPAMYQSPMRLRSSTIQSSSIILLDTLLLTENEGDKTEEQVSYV
smiles,measurement,setting,value
COc1cc(CCNCc2ccccc2OC)c(OC)cc1I,Ki,[1],2.3 nM
same,Ki,[2],2.2 nM
same,Ki,[3],7 nM
COc1c(OCC[18F])cccc1[C@H](O)C1CCN(CCc2ccc(F)cc2)CC1,Ratio,[4],2.7
same,Drug uptake,[5],1.45
CC1(NC(=O)c2ccc(N)cc2)CCN(CCCOc2ccc(F)cc2)CC1,Kd,[6],0.11 nM
same,Ki,[7],0.2 nM
CN(C)[C@@H]1CCc2[nH]c3ccc(NC(=O)c4ccc(F)cc4)cc3c2C1,Ki,[8],> 500 nM
same,Ki,[9],> 500 nM
same,Ki,[10],> 500 nM
same,Ki,[11],6 nM
same,Ki,[12],> 500 nM
same,Ki,[13],> 500 nM
same,Ki,[14],> 500 nM
COc1cccc([C@H](O)C2CCN(CCc3ccc([18F])cc3)CC2)c1OC,Drug uptake,[15],> 94%
CNC(=O)c1ccc2c(c1)CCO[C@H]2CCN1CCN(c2ccc(C(N)=O)cc2)CC1,Ki,[9],> 18000 nM
same,Ki,[16],6 nM
Cc1ccc2c(c1)c(-c1ccc(F)cc1)c(C)n2C1CCN(C)CC1,Ki,[17],2700 nM
same,Ki,[18],5.3 nM
same,Ki,[19],2600 nM
c1ccc(CN2CCN(c3nc4ccsc4n4cccc34)CC2)cc1,Ki,[20],1 nM
COc1c(OCC[18F])cccc1C(O)C1CCN(CCc2ccc(F)cc2)CC1 (racemic),Ratio,[21],3.2
same,Drug uptake,[22],1.5
COc1ccc(-c2c([N+](=O)[O-])ccn2C)cc1,Ki,[23],16.8 nM
CN1CCC(C(=O)c2cccc(NC(=O)c3c(F)cc(F)cc3F)n2)CC1,Ki,[8],> 590 nM
same,Ki,[9],> 593 nM
same,Ki,[24],> 591 nM
same,Ki,[10],> 590 nM
same,Ki,[25],2.21 nM
same,Ki,[12],> 592 nM
same,Ki,[13],> 594 nM
same,Ki,[14],> 595 nM
COc1cccc(S(=O)(=O)N2CCC[C@@H]2CCN2CCC(C)CC2)c1,Ki,[26],1.6 nM
same,Ki,[27],9.2 nM
same,Ki,[28],18 nM
COc1cccc(CCc2ccccc2OCC[C@@H]2C[C@@H](O)CN2C)c1,Ki,[29],0.79 nM
COc1cc(CCNCc2ccccc2O[11CH3])c(OC)cc1Br,Ki,[30],0.5 nM
same,Ki,[31],1.7 nM
same,Drug uptake,[32],0.62
same,SUV,[33],0.8
[11CH3]N1CCN(c2cccc3cc(S(=O)(=O)c4cccc(F)c4)cnc23)CC1,Drug uptake,[34],3.5 %Idose/L
same,Ki,[35],0.16 nM
same,Drug uptake,[36],11.5 %Idose/L
same,Ki,[37],0.79 nM
same,Drug uptake,[38],10.5 %Idose/L
[11CH3]N1CCc2nc3ccnn3c(N3CCC3)c2CC1,Ki,[39],> 1000 nM
same,Ki,[40],161 nM
same,Ki,[41],75 nM
same,Ki,[42],> 1000 nM
CC(c1cnc2c(N3CCN(C)CC3)cccc2c1)S(=O)(=O)c1ccccc1[18F] (stereo unspecified),SUVmax,[43],4.5
same,SUVmax,[44],2.5
CN(C)CCOc1cccc2c1ccn2S(=O)(=O)c1ccc([18F])cc1,Ki,[45],4 nM
CC1CCN(CC[C@H]2CCCN2S(=O)(=O)c2cccc(OCC[18F])c2)CC1,Ki,[46],0.75 nM
Cc1nc2n(c(=O)c1CCN1CCC(C(=O)c3ccc([18F])cc3)CC1)CCS2,Ratio,[47],3
same,Ratio,[48],2.38
same,Ratio,[49],3.5
same,Ratio,[50],2.53
COc1ccc(C(=O)N(Cc2ccc(C)cc2)C2CCN(C)CC2)cc1,Ki,[51],2.1 nM
same,Ki,[52],2.5 nM
[11CH3]N1CCC(COC(=O)c2cc(Cl)c(N)c3c2OCCO3)CC1,SUVmax,[53],28 kBq/cm3
same,Ki,[54],0.3 nM
